Data reported in ChEMBL document CHEMBL4842340, “Development of Cagrilintide, a Long-Acting Amylin Analogue” (J Med Chem, 2021).
Converted amounts (≈) assume the structure as drawn. *1 amine or outer side, *2 acyl side, *3 side chain or, on linkers, in order; H or OH if unused. Where a SMILES comes first, the peptide text is derived from it. Bridges are numbered along the chain shown (N, C = ends). The star is where a group is joined. C20 diacid = O=C(O)CCCCCCCCCCCCCCCCCCC(=O)*; γGlu = O=C(O)[C@H](CCC(=O)[*:2])N[*:1]

Columns and labels:
Rattus norvegicus [1] = test: Reduction in food intake in Sprague-Dawley rat at 30 nmol/kg, sc administered as single dose measured upto 24 hrs relative to control; format: functional; set-up: scale not given: the % may be the effect or the level left; conditions: time hrs <=24
Homo sapiens [2] = species on record: Homo sapiens; test: Ratio of EC50 for human calcitonin receptor expressed in BHK570 cells to EC50 for human AMY3R (CT+RAMP3) expressed in Hollex1 cells; format: cell-based
Rattus norvegicus [3] = species on record: Rattus norvegicus; test: Ratio of EC50 for rat calcitonin receptor expressed in BHK-13 cells to EC50 for rat AMY3R (CT+RAMP3) expressed in tk-ts13 cells; format: cell-based
Insulin (Homo sapiens) [4] = molecular target: Insulin (Homo sapiens) (UniProt P01308); test: Effect on insulin (unknown origin) amyloid fibril formation assessed as lag time in glycyl-glycine buffer at pH 4 measured after 45 hrs by thioflavin-T fluorescence assay
Chain of Insulin (Homo sapiens) (P01308 whole entry): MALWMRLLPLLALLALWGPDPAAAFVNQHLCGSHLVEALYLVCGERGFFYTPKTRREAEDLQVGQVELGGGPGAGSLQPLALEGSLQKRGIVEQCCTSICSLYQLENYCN

[5] = Solubility of the compound in bis-tris propane at pH 7 by UPLC analysis; format: physicochemical; conditions: bis-tris propane buffer
[6] = Agonist activity at rat calcitonin receptor expressed in BHK-13 cells assessed as increase in intracellular cAMP concentration incubated for 25 mins by CRE luciferase reporter gene assay; format: cell-based; conditions: BHK-13, 25 min
[7] = Solubility of the compound in lactate at pH 5 by UPLC analysis; format: physicochemical; conditions: lactate buffer
[8] = Solubility of the compound in lactate at pH 4 by UPLC analysis; format: physicochemical; conditions: lactate buffer
[9] = Agonist activity at human AMY3R (CT+RAMP3) expressed in Hollex1 cells incubated for 3 hrs by luminescence assay; format: cell-based; conditions: Hollex1, 3 h
[10] = Agonist activity at rat AMY3R (CT+RAMP3) expressed in tk-ts13 cells assessed as increase in intracellular cAMP level incuabted for 25 mins by CRE luciferase reporter gene assay; format: cell-based; conditions: tk-ts13, 25 min
[11] = Solubility of the compound in lactate at pH 3 by UPLC analysis; format: physicochemical; conditions: lactate buffer
[12] = Solubility of the compound in bis-tris propane at pH 6 by UPLC analysis; format: physicochemical; conditions: bis-tris propane buffer
[13] = Agonist activity at human calcitonin receptor expressed in BHK570 cells assessed as increase in intracellular cAMP concentration incubated for 3 hrs in absence of albumin by CRE luciferase reporter gene assay; format: cell-based; conditions: BHK570, 3 h
Insulin (Homo sapiens) [14] = molecular target: Insulin (Homo sapiens) (UniProt P01308); test: Effect on insulin (unknown origin) amyloid fibril formation assessed as peptide recovery in glycyl-glycine buffer at pH 4 measured after 45 hrs by thioflavin-T fluorescence assay relative to control; set-up: concentration or dose not given beside the values
Rattus norvegicus [15] = test: Reduction in food intake in Sprague-Dawley rat at 30 nmol/kg, sc administered as single dose measured after 24 to 48 hrs relative to control; format: functional; set-up: scale not given: the % may be the effect or the level left; conditions: time 24-48 hrs
[16] = Solubility of the compound in bis-tris propane at pH 6.5 by UPLC analysis; format: physicochemical; conditions: bis-tris propane buffer
[17] = Solubility of the compound in bis-tris propane at pH 8 by UPLC analysis; format: physicochemical; conditions: bis-tris propane buffer
[18] = Displacement of [125I]-amylin from rat AMY3R (CTR+RAMP3) expressed in BHK-13 cells measured after 120 mins by scintillation proximity assay; format: cell-based
[19] = Solubility of the compound in bis-tris propane at pH 7.5 by UPLC analysis; format: physicochemical; conditions: bis-tris propane buffer
Rattus norvegicus [20] = species on record: Rattus norvegicus; test: Ratio of IC50 for displacement of [125I]-calcitonin from rat calcitonin receptor expressed in tk-ts 13 cells to IC50 for displacement of [125I]-amylin from rat AMY3R (CTR+RAMP3) expressed in BHK-13 cells; format: cell-based
Rattus norvegicus [21] = test: Reduction in food intake in Sprague-Dawley rat at 3 nmol/kg, sc administered as single dose measured upto 24 hrs relative to control; format: functional; set-up: scale not given: the % may be the effect or the level left; conditions: time hrs <=24
[22] = Displacement of [125I]-calcitonin from rat calcitonin receptor expressed in tk-ts 13 cells measured after 120 mins by scintillation proximity assay; format: cell-based; conditions: tk-ts13
[23] = Displacement of [125I]-amylin from human AMY3R (CTR+RAMP3) expressed in BHK-13 cells measured after 120 mins by scintillation proximity assay; format: cell-based
[24] = Displacement of [125I]-calcitonin from human calcitonin receptor expressed in tk-ts 13 cells measured after 120 mins by scintillation proximity assay; format: cell-based; conditions: tk-ts13
Homo sapiens [25] = species on record: Homo sapiens; test: Ratio of IC50 for displacement of [125I]-calcitonin from human calcitonin receptor expressed in tk-ts 13 cells to IC50 for displacement of [125I]-amylin from human AMY3R (CTR+RAMP3) expressed in BHK-13 cells; format: cell-based
Rattus norvegicus [26] = test: Reduction in food intake in Sprague-Dawley rat at 3 nmol/kg, sc administered as single dose measured after 24 to 48 hrs relative to control; format: functional; set-up: scale not given: the % may be the effect or the level left; conditions: time 24-48 hrs

Row | TIME (Insulin (Homo sapiens) [4]) [h] | solubility [5] [µM] | EC50 [6] [nM] | solubility [7] [µM] | solubility [8] [µM] | EC50 [9] [nM] | EC50 [10] [nM] | solubility [11] [µM] | solubility [12] [µM] | EC50 [13] [nM] | Activity (Insulin (Homo sapiens) [14]) [%] | solubility [16] [µM] | Compound | Activity (Rattus norvegicus [1]) [%] | Ratio EC50 (Homo sapiens [2]) | Ratio EC50 (Rattus norvegicus [3]) | Activity (Rattus norvegicus [15]) [%] | further results
1 | 45 | 9 (≈ 42.8 µg/mL) | 6.76 | 200 (≈ 952 µg/mL) | 200 (≈ 952 µg/mL) | 0.072 | 0.082 | 200 (≈ 952 µg/mL) | 200 (≈ 952 µg/mL) | 0.407 | 50 | – | CC[C@H](C)[C@H](NC(=O)[C@@H]1CCCN1C(=O)CNC(=O)[C@H](Cc1ccccc1)NC(=O)[C@H](CC(N)=O)NC(=O)[C@H](CC(N)=O)NC(=O)[C@H](CO)NC(=O)[C@H](CO)NC(=O)[C@H](Cc1cnc[nH]1)NC(=O)[C@H](CCCNC(=N)N)NC(=O)[C@H](CC(C)C)NC(=O)[C@H](Cc1ccccc1)NC(=O)[C@H](CCC(=O)O)NC(=O)[C@H](C)NC(=O)[C@H](CC(C)C)NC(=O)[C@H](CCCNC(=N)N)NC(=O)[C@H](CCC(N)=O)NC(=O)[C@@H](NC(=O)[C@H](C)NC(=O)[C@@H]1CSSC[C@H](NC(=O)[C@H](Cc2cnc[nH]2)NC(=O)[C@H](Cc2cnc[nH]2)NC(=O)[C@H](Cc2cnc[nH]2)NC(=O)CC[C@H](NC(=O)CCCCCCCCCCCCCCCCCCC(=O)O)C(=O)O)C(=O)N[C@@H](CC(N)=O)C(=O)N[C@@H]([C@@H](C)O)C(=O)N[C@@H](C)C(=O)N[C@@H]([C@@H](C)O)C(=O)N1)[C@@H](C)O)C(=O)N[C@@H](CC(C)C)C(=O)N1CCC[C@H]1C(=O)N1CCC[C@H]1C(=O)N[C@H](C(=O)N[C@@H](CC(N)=O)C(=O)N[C@H](C(=O)NCC(=O)N[C@@H](CO)C(=O)N[C@@H](CC(N)=O)C(=O)N[C@H](C(=O)N[C@@H](Cc1ccc(O)cc1)C(N)=O)[C@@H](C)O)C(C)C)[C@@H](C)O ({C20 diacid-γGlu}-HHHCNTATCATQRLAEFLRHSSNNFGPILPPTNVGSNTY-NH2; disulfide 4-9) | 70 | 6 | 82 | 45 | –
2 | 10 | 1 (≈ 4.77 µg/mL) | 7.09 | 200 (≈ 953 µg/mL) | 200 (≈ 953 µg/mL) | 0.069 | 0.143 | 200 (≈ 953 µg/mL) | 200 (≈ 953 µg/mL) | 0.398 | 10 | 117 (≈ 558 µg/mL) | CC[C@H](C)[C@H](NC(=O)[C@@H]1CCCN1C(=O)CNC(=O)[C@H](Cc1ccccc1)NC(=O)[C@H](CC(N)=O)NC(=O)[C@H](CC(N)=O)NC(=O)[C@H](CO)NC(=O)[C@H](CO)NC(=O)[C@H](Cc1cnc[nH]1)NC(=O)[C@H](Cc1cnc[nH]1)NC(=O)[C@H](CC(C)C)NC(=O)[C@H](Cc1ccccc1)NC(=O)[C@H](CCCNC(=N)N)NC(=O)[C@H](C)NC(=O)[C@H](CC(C)C)NC(=O)[C@H](CCCNC(=N)N)NC(=O)[C@H](CCC(N)=O)NC(=O)[C@@H](NC(=O)[C@H](C)NC(=O)[C@@H]1CSSC[C@H](NC(=O)[C@H](Cc2cnc[nH]2)NC(=O)[C@H](Cc2cnc[nH]2)NC(=O)[C@H](Cc2cnc[nH]2)NC(=O)CC[C@H](NC(=O)CCCCCCCCCCCCCCCCCCC(=O)O)C(=O)O)C(=O)N[C@@H](CC(N)=O)C(=O)N[C@@H]([C@@H](C)O)C(=O)N[C@@H](C)C(=O)N[C@@H]([C@@H](C)O)C(=O)N1)[C@@H](C)O)C(=O)N[C@@H](CC(C)C)C(=O)N1CCC[C@H]1C(=O)N1CCC[C@H]1C(=O)N[C@H](C(=O)N[C@@H](CC(N)=O)C(=O)N[C@H](C(=O)NCC(=O)N[C@@H](CO)C(=O)N[C@@H](CC(N)=O)C(=O)N[C@H](C(=O)N[C@@H](Cc1ccc(O)cc1)C(N)=O)[C@@H](C)O)C(C)C)[C@@H](C)O ({C20 diacid-γGlu}-HHHCNTATCATQRLARFLHHSSNNFGPILPPTNVGSNTY-NH2; disulfide 4-9) | 65 | 6 | 50 | 25 | –
3 | – | – | – | – | – | – | – | – | – | – | – | – | CC[C@H](C)[C@H](NC(=O)[C@H](CCC(=O)O)NC(=O)CNC(=O)[C@H](Cc1ccccc1)NC(=O)[C@H](CC(N)=O)NC(=O)[C@H](CC(N)=O)NC(=O)[C@H](CO)NC(=O)[C@H](CO)NC(=O)[C@H](CCCNC(=N)N)NC(=O)[C@H](Cc1cnc[nH]1)NC(=O)[C@H](CC(C)C)NC(=O)[C@H](Cc1ccccc1)NC(=O)[C@H](CCC(=O)O)NC(=O)[C@H](C)NC(=O)[C@H](CC(C)C)NC(=O)[C@H](CCCNC(=N)N)NC(=O)[C@H](CCC(N)=O)NC(=O)[C@@H](NC(=O)[C@H](C)NC(=O)[C@@H]1CSSC[C@H](NC(=O)[C@H](Cc2cnc[nH]2)NC(=O)CC[C@H](NC(=O)CCCCCCCCCCCCCCCCCCC(=O)O)C(=O)O)C(=O)N[C@@H](CC(N)=O)C(=O)N[C@@H]([C@@H](C)O)C(=O)N[C@@H](C)C(=O)N[C@@H]([C@@H](C)O)C(=O)N1)[C@@H](C)O)C(=O)N[C@@H](CC(C)C)C(=O)N[C@@H](CO)C(=O)N[C@@H](CCCNC(=N)N)C(=O)N[C@H](C(=O)N[C@@H](CC(N)=O)C(=O)N[C@H](C(=O)NCC(=O)N[C@@H](CO)C(=O)N[C@@H](CC(N)=O)C(=O)N[C@H](C(=O)N[C@@H](Cc1ccc(O)cc1)C(N)=O)[C@@H](C)O)C(C)C)[C@@H](C)O | 53 | – | – | 46 | –
4 | 12 | 160 (≈ 717 µg/mL) | 0.539 | 200 (≈ 897 µg/mL) | 200 (≈ 897 µg/mL) | 0.121 | 0.188 | 200 (≈ 897 µg/mL) | 200 (≈ 897 µg/mL) | 0.107 | 26 | 174 (≈ 780 µg/mL) | CC[C@H](C)[C@H](NC(=O)[C@@H]1CCCN1C(=O)CNC(=O)[C@H](Cc1ccccc1)NC(=O)[C@H](CC(N)=O)NC(=O)[C@H](CC(N)=O)NC(=O)[C@H](CO)NC(=O)[C@H](CO)NC(=O)[C@H](Cc1cnc[nH]1)NC(=O)[C@H](Cc1cnc[nH]1)NC(=O)[C@H](CC(C)C)NC(=O)[C@H](Cc1ccccc1)NC(=O)[C@H](CCC(=O)O)NC(=O)[C@H](C)NC(=O)[C@H](CC(C)C)NC(=O)[C@H](CCCNC(=N)N)NC(=O)[C@H](CCC(N)=O)NC(=O)[C@@H](NC(=O)[C@H](C)NC(=O)[C@@H]1CSSC[C@H](NC(=O)[C@H](CCCNC(=N)N)NC(=O)CC[C@H](NC(=O)CCCCCCCCCCCCCCCCCCC(=O)O)C(=O)O)C(=O)N[C@@H](CC(N)=O)C(=O)N[C@@H]([C@@H](C)O)C(=O)N[C@@H](C)C(=O)N[C@@H]([C@@H](C)O)C(=O)N1)[C@@H](C)O)C(=O)N[C@@H](CC(C)C)C(=O)N1CCC[C@H]1C(=O)N1CCC[C@H]1C(=O)N[C@H](C(=O)N[C@@H](CC(N)=O)C(=O)N[C@H](C(=O)NCC(=O)N[C@@H](CO)C(=O)N[C@@H](CC(N)=O)C(=O)N[C@H](C(=O)N[C@@H](Cc1ccc(O)cc1)C(N)=O)[C@@H](C)O)C(C)C)[C@@H](C)O ({C20 diacid-γGlu}-RCNTATCATQRLAEFLHHSSNNFGPILPPTNVGSNTY-NH2; disulfide 2-7) | – | 1 | 3 | – | solubility [17]: 200 µM (≈ 897 µg/mL); IC50 [18]: 0.029 nM; solubility [19]: 200 µM (≈ 897 µg/mL); Ratio IC50 (Rattus norvegicus [20]): 3; Activity (Rattus norvegicus [21]): 56%; IC50 [22]: 0.087 nM; IC50 [23]: 0.192 nM; IC50 [24]: 0.039 nM; Ratio IC50 (Homo sapiens [25]): 0.2; Activity (Rattus norvegicus [26]): 53%
